According to ChEMBL document CHEMBL4507261, “Data for DCP probe A-192621” (2021):

Tests used:
[1] = target: Prostaglandin G/H synthase 1 (Homo sapiens) (UniProt P23219); test: COX1(h) Eurofins-Cerep enzyme and uptake assay; settings: Compound concentration 10.0 uM
[2] = target: MAO-B (amine oxidase [flavin-containing] B) (Homo sapiens, UniProt P27338); test: MAO-B (h) recombinant enzyme Eurofins-Cerep enzyme and uptake assay; parameters: incubation time 60 min, incubation temperature 37°C, substrate/stimulus/tracer D-Luciferin derivative (4 µM); settings: probe D-Luciferin derivative (4 µM), compound concentration 10 uM, read-out: % Inhibition of Control Values (Mean n=2)
[3] = target: Adenosine receptor A3 (Homo sapiens) (UniProt P0DMS8); test: A3 (h) Eurofins-Cerep binding assay; parameters: ligand concentration 0.15 nM; settings: filed as agonist, Compound concentration 10.0 uM
[4] = target: Cannabinoid receptor 1 (Homo sapiens) (UniProt P21554); test: CB1 (h) Eurofins-Cerep binding assay; parameters: ligand concentration 0.5 nM; settings: filed as agonist, Compound concentration 10.0 uM
Sequence of Cannabinoid receptor 1 (Homo sapiens) (P21554 whole entry): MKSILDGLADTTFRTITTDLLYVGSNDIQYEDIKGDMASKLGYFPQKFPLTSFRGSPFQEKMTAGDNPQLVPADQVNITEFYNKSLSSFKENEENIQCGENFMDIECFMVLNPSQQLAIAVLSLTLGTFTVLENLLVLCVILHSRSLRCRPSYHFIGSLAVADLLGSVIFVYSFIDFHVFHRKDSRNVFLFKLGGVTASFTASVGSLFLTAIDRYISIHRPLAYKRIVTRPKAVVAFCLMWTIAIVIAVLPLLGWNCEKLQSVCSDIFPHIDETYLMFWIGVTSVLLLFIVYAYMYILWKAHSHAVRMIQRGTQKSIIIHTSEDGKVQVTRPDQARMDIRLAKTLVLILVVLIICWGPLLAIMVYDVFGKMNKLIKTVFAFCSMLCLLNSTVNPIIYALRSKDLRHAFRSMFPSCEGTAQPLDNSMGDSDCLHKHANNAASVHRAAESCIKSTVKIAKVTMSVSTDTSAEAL

[5] = target: T1, Muscarinic acetylcholine receptor M4 (Homo sapiens) (UniProt P08173); test: M4 (h) Eurofins-Cerep binding assay; parameters: ligand concentration 0.2 nM; settings: filed as antagonist, Compound concentration 10.0 uM
T1 sequence (whole entry): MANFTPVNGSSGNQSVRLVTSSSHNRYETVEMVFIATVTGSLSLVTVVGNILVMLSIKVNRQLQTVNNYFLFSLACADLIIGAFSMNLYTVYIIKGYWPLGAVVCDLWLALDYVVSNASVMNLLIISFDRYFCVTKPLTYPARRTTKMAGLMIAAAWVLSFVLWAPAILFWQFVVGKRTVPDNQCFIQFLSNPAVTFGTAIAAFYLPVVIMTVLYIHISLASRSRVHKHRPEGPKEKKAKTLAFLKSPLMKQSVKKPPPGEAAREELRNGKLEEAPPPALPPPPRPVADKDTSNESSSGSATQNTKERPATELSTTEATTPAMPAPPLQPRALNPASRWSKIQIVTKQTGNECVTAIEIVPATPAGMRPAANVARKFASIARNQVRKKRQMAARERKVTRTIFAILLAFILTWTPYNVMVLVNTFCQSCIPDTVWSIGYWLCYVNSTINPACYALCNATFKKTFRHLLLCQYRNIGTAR

[6] = target: Vasopressin V1a receptor (Homo sapiens) (UniProt P37288); test: V1 a (h) Eurofins-Cerep binding assay; parameters: ligand concentration 0.3 nM; settings: filed as agonist, Compound concentration 10.0 uM
[7] = target: voltage-gated Na+ channel (site 2) (Rattus norvegicus, UniProt F1LQQ7+O08562+O88420+O88457+P04774+P04775+P08104+P15389+P15390+Q62968); test: Na+ channel (site 2) Eurofins-Cerep binding assay; parameters: incubation time 60 min, incubation temperature 37°C, ligand concentration 10 nM; settings: rat cerebral cortex (source of protein), probe [3H]batrachotoxin (10 nM), compound concentration 10 uM, read-out: % Inhibition of Control Specific Binding (Mean n=2)
[8] = tested on: Tyrosine-protein kinase ABL1 (Homo sapiens), P00519 [T315I]; settings: Compound concentration 1000.0 nM
[9] = target: Cyclin-dependent kinase 4 (Homo sapiens) (UniProt P11802); settings: Compound concentration 1000.0 nM
Sequence of Cyclin-dependent kinase 4 (Homo sapiens) (P11802 whole entry): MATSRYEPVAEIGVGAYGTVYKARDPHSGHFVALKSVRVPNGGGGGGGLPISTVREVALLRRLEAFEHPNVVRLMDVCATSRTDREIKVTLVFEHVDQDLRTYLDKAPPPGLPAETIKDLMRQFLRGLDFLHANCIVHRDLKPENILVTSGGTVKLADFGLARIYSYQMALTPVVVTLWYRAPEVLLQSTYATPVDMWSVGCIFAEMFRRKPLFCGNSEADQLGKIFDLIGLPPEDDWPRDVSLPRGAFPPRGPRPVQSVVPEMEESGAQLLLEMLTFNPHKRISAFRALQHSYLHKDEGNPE

[10] = target: Cyclin-dependent kinase 7 (Homo sapiens) (UniProt P50613); settings: Compound concentration 1000.0 nM
[11] = target: Cyclin-dependent kinase 8 (Homo sapiens) (UniProt P49336); settings: Compound concentration 1000.0 nM
[12] = target: Serine/threonine-protein kinase DCLK1 (Homo sapiens) (UniProt O15075); settings: Compound concentration 1000.0 nM
[13] = tested on: Epidermal growth factor receptor (Homo sapiens), P00533 [G719S]; settings: Compound concentration 1000.0 nM
[14] = tested on: Epidermal growth factor receptor (Homo sapiens), P00533 [UNDEFINED MUTATION]; settings: Compound concentration 1000.0 nM
[15] = target: Ephrin type-A receptor 3 (Homo sapiens) (UniProt P29320); settings: Compound concentration 1000.0 nM
[16] = target: Beta-adrenergic receptor kinase 1 (Homo sapiens) (UniProt P25098); settings: Compound concentration 1000.0 nM
[17] = target: G protein-coupled receptor kinase 3 (Homo sapiens) (UniProt P35626); settings: Compound concentration 1000.0 nM
[18] = target: Tyrosine-protein kinase HCK (Homo sapiens) (UniProt P08631); settings: Compound concentration 1000.0 nM
[19] = target: Tyrosine-protein kinase JAK1 (Homo sapiens) (UniProt P23458); settings: Compound concentration 1000.0 nM
Sequence of Tyrosine-protein kinase JAK1 (Homo sapiens) (P23458 whole entry): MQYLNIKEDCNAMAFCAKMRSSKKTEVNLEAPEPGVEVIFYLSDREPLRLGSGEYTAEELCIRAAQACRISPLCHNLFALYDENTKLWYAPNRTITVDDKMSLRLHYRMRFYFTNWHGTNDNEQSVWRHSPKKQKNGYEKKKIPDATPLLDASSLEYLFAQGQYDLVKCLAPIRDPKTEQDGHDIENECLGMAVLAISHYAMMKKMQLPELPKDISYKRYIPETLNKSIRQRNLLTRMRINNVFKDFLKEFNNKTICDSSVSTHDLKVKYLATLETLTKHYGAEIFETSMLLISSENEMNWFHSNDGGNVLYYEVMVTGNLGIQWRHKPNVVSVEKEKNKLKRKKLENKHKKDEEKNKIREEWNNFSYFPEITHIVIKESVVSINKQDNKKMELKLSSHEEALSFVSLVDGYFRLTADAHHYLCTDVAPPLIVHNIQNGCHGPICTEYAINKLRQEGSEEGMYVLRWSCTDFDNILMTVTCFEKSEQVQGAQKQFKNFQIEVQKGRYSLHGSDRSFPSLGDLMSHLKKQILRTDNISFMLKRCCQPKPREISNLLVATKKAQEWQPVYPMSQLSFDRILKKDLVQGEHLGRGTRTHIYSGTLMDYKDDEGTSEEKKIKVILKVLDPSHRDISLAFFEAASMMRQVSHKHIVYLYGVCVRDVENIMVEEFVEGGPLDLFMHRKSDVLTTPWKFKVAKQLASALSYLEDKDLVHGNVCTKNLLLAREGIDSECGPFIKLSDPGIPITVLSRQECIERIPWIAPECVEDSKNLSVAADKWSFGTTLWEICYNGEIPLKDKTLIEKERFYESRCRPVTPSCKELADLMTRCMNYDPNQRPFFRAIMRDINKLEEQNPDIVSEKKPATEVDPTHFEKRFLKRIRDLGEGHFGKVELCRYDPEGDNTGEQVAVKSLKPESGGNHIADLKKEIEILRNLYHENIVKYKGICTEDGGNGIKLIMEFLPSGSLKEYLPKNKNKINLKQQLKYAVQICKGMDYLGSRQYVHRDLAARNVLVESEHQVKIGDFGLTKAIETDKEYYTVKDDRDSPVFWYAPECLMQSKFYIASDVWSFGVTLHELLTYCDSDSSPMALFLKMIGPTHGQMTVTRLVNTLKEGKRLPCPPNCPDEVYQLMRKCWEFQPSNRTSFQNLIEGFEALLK

[20] = target: Tyrosine-protein kinase Lck (Homo sapiens) (UniProt P06239); settings: Compound concentration 1000.0 nM
[21] = target: Serine/threonine-protein kinase STK11 (Homo sapiens) (UniProt Q15831); settings: Compound concentration 1000.0 nM
[22] = target: MAP/microtubule affinity-regulating kinase 3 (Homo sapiens) (UniProt P27448); settings: Compound concentration 1000.0 nM
Sequence of MAP/microtubule affinity-regulating kinase 3 (Homo sapiens) (P27448 whole entry, looked up): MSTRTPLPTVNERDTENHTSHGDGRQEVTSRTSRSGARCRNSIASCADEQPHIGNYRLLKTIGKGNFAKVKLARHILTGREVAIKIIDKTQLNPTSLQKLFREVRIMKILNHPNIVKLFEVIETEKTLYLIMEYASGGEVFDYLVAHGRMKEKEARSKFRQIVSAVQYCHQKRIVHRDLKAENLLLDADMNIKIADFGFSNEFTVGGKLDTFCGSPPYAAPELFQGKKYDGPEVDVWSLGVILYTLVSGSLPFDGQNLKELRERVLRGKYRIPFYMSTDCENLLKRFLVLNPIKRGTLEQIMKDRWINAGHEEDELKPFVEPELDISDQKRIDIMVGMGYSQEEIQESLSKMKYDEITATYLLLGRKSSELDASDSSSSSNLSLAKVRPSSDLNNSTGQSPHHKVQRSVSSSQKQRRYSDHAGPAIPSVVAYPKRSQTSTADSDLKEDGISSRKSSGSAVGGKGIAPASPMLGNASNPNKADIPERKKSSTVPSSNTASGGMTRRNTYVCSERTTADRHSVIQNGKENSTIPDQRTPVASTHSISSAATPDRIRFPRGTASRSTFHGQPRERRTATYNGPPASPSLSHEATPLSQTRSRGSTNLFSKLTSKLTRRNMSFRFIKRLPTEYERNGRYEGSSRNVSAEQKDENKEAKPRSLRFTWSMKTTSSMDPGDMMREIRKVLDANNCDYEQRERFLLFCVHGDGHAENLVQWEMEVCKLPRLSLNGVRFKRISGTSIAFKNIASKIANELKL

[23] = target: Hepatocyte growth factor receptor (Homo sapiens) (UniProt P08581); settings: Compound concentration 1000.0 nM
[24] = target: Serine/threonine-protein kinase 4 (Homo sapiens) (UniProt Q13043); settings: Compound concentration 1000.0 nM
Sequence of Serine/threonine-protein kinase 4 (Homo sapiens) (Q13043 whole entry): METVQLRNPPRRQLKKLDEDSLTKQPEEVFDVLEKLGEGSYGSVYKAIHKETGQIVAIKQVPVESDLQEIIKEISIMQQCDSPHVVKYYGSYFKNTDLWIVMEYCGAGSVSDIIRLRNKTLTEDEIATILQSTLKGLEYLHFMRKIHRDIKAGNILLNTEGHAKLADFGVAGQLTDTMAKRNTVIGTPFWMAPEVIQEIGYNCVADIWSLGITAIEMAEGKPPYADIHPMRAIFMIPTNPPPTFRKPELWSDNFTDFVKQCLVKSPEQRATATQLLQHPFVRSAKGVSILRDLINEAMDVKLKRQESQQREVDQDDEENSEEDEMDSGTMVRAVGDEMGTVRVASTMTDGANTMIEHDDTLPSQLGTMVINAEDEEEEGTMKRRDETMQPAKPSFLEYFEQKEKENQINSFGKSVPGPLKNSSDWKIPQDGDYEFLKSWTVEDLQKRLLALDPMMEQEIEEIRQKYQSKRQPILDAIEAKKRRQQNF

[25] = target: Myosin light chain kinase 2, skeletal/cardiac muscle (Homo sapiens) (UniProt Q9H1R3); settings: Compound concentration 1000.0 nM
[26] = target: Serine/threonine-protein kinase Nek5 (Homo sapiens) (UniProt Q6P3R8); settings: Compound concentration 1000.0 nM
[27] = target: Mitogen-activated protein kinase 12 (Homo sapiens) (UniProt P53778); settings: Compound concentration 1000.0 nM
[28] = target: Phosphatidylinositol 4-phosphate 3-kinase C2 domain-containing subunit beta (Homo sapiens) (UniProt O00750); settings: Compound concentration 1000.0 nM
[29] = target: Protein kinase C theta type (Homo sapiens) (UniProt Q04759); settings: Compound concentration 1000.0 nM
Sequence of Protein kinase C theta type (Homo sapiens) (Q04759 whole entry, looked up): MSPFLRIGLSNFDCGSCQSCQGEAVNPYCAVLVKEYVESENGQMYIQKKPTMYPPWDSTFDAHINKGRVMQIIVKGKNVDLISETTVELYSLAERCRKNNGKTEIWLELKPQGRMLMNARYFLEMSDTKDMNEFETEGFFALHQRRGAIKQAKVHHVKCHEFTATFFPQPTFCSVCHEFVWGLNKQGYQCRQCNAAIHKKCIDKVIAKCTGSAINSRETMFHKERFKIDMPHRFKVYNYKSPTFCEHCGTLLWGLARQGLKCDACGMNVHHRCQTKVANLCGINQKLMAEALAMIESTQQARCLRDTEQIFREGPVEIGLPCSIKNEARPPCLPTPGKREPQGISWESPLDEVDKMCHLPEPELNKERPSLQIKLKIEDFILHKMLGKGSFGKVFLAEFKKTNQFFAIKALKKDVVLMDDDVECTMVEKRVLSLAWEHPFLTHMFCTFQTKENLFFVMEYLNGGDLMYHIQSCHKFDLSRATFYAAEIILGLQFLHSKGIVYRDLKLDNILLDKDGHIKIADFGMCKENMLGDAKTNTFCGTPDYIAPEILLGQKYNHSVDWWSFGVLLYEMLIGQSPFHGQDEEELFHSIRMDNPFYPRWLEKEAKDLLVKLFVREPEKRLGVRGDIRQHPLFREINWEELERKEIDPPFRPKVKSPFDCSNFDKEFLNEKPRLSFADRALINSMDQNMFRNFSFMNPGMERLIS

[30] = target: Ribosomal protein S6 kinase alpha-6 (Homo sapiens) (UniProt Q9UK32); settings: Compound concentration 1000.0 nM
[31] = target: Dual specificity testis-specific protein kinase 1 (Homo sapiens) (UniProt Q15569); settings: Compound concentration 1000.0 nM
[32] = target: High affinity nerve growth factor receptor (Homo sapiens) (UniProt P04629); settings: Compound concentration 1000.0 nM
[33] = target: Serine/threonine-protein kinase ULK1 (Homo sapiens) (UniProt O75385); settings: Compound concentration 1000.0 nM
Sequence of Serine/threonine-protein kinase ULK1 (Homo sapiens) (O75385 whole entry): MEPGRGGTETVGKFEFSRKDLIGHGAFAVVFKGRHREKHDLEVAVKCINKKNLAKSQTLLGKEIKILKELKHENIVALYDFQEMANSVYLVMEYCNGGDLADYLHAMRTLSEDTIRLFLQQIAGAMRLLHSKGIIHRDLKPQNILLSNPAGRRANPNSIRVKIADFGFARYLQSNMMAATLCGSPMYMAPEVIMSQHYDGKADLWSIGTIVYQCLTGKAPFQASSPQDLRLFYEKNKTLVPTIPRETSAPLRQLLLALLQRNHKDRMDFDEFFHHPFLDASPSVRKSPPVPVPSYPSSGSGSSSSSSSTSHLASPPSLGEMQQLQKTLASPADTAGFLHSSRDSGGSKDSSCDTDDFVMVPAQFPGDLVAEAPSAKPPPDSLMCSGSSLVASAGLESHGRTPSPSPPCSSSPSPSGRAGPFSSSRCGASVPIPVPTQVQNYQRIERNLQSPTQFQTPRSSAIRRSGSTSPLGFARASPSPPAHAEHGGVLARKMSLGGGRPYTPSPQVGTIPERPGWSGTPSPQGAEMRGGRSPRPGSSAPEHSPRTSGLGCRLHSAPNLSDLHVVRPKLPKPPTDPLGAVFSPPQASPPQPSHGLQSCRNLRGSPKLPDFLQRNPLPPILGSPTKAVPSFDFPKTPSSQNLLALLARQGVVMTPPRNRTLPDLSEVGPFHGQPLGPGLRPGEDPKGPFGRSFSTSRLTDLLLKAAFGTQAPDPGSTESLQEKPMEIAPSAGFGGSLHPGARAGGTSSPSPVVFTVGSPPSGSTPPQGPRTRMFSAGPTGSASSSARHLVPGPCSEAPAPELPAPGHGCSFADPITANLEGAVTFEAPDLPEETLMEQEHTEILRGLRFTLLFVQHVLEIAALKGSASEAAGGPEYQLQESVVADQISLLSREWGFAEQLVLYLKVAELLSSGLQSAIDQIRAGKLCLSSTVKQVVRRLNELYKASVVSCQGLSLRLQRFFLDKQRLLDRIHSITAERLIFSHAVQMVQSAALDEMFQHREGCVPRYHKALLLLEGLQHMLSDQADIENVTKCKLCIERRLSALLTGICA

[34] = target: Serine/threonine-protein kinase ULK2 (Homo sapiens) (UniProt Q8IYT8); settings: Compound concentration 1000.0 nM
[35] = target: Serine/threonine-protein kinase 32C (Homo sapiens) (UniProt Q86UX6); settings: Compound concentration 1000.0 nM
[36] = target: Endothelin-1 receptor (Homo sapiens) (UniProt P25101); settings: filed as agonist, Compound concentration 10.0 uM

Compound	% Inhibition of Control Values (Mean n=2) [1] [%]	inhibition at 60 min, 10 µM [2] [%]	% Inhibition of Control Specific Binding (Mean n=2) [3] [%]	% Inhibition of Control Specific Binding (Mean n=2) [4] [%]	% Inhibition of Control Specific Binding (Mean n=2) [5] [%]	% Inhibition of Control Specific Binding (Mean n=2) [6] [%]	inhibition at 60 min, 10 µM [7] [%]	residual activity [8] [%]	residual activity [9] [%]	residual activity [10] [%]	residual activity [11] [%]	residual activity [12] [%]	residual activity [13] [%]	residual activity [14] [%]	residual activity [15] [%]	residual activity [16] [%]	residual activity [17] [%]	residual activity [18] [%]	residual activity [19] [%]	residual activity [20] [%]	also measured
CCCOc1ccc([C@H]2[C@H](C(=O)O)[C@@H](c3ccc4c(c3)OCO4)CN2CC(=O)Nc2c(CC)cccc2CC)cc1 [A-192621]	13.2	-12.3	47.4	15.4	-2	7.4	29.1	77	89	78	76	75	89	100	86	51	73	92	95	100	residual activity [21]: 88%; residual activity [22]: 100%; residual activity [23]: 100%; residual activity [24]: 99%; residual activity [25]: 91%; residual activity [26]: 29%; residual activity [27]: 73%; residual activity [28]: 92%; residual activity [29]: 81%; residual activity [30]: 78%; residual activity [31]: 89%; residual activity [32]: 84%; residual activity [33]: 68%; residual activity [34]: 55%; residual activity [35]: 100%; % Inhibition of Control Specific Binding (Mean n=2) [36]: 97.1%
CCCOc1ccc([C@@H]2[C@@H](C(=O)O)[C@H](c3ccc4c(c3)OCO4)CN2CC(=O)Nc2c(CC)cccc2CC)cc1 [A-1806262]	2.3	-14.5	37.6	-1.6	-1.8	15	24.4	82	96	86	86	80	100	100	99	89	100	92	100	100	residual activity [21]: 100%; residual activity [22]: 100%; residual activity [23]: 92%; residual activity [24]: 95%; residual activity [25]: 93%; residual activity [26]: 55%; residual activity [27]: 100%; residual activity [28]: 94%; residual activity [29]: 100%; residual activity [30]: 91%; residual activity [31]: 100%; residual activity [32]: 97%; residual activity [33]: 77%; residual activity [34]: 76%; residual activity [35]: 100%; % Inhibition of Control Specific Binding (Mean n=2) [36]: 63.7%
